Laboratory results as given in publication PMC10174618, “Monoterpenoid aryl hydrocarbon receptor allosteric antagonists protect against ultraviolet skin damage in female mice” (Nature Communications, 2023).

What was measured:
Assay in all cases: biochemical
Set-up in all cases: KINOMEscan scanMAX active site-directed competition binding assay, percent of control, 468 kinases
Settings in all cases: competition binding, percent of control
[1] = biological target: MAP4K5 (Homo sapiens, UniProt Q9Y4K4)
Chain of MAP4K5 (Q9Y4K4 whole entry): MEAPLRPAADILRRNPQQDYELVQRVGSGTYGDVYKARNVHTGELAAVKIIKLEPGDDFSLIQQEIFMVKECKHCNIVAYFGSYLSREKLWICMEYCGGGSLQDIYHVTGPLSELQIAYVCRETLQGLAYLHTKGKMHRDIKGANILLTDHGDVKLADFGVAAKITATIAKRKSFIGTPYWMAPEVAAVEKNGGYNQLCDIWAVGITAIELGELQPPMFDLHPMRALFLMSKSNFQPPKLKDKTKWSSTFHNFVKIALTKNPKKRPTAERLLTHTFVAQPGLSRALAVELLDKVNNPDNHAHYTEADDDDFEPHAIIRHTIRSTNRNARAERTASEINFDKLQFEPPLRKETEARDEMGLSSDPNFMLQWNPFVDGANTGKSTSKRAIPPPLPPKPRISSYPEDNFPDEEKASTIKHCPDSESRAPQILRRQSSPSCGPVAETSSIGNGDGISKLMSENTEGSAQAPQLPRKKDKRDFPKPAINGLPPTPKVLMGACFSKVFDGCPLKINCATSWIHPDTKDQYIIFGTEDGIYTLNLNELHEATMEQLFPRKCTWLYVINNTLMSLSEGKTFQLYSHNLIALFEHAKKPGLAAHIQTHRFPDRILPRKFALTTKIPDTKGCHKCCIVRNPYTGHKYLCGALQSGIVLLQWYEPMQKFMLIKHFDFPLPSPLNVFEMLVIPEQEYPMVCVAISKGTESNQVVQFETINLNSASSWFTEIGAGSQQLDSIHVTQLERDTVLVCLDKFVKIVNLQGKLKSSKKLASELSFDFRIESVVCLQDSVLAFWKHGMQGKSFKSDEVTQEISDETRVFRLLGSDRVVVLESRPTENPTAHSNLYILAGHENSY
Summary of the method: (§1)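 KINOMEscan active site-directed competition binding assay against 468 human kinases with 100 μM S-carvone. Binding expressed as % of control, with 35% of control as the inhibition threshold.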

[2] = biological target: T1, CDC2L1 (Homo sapiens, UniProt P21127)
T1 construct: gene CDK11B
T1 sequence (P21127 whole entry): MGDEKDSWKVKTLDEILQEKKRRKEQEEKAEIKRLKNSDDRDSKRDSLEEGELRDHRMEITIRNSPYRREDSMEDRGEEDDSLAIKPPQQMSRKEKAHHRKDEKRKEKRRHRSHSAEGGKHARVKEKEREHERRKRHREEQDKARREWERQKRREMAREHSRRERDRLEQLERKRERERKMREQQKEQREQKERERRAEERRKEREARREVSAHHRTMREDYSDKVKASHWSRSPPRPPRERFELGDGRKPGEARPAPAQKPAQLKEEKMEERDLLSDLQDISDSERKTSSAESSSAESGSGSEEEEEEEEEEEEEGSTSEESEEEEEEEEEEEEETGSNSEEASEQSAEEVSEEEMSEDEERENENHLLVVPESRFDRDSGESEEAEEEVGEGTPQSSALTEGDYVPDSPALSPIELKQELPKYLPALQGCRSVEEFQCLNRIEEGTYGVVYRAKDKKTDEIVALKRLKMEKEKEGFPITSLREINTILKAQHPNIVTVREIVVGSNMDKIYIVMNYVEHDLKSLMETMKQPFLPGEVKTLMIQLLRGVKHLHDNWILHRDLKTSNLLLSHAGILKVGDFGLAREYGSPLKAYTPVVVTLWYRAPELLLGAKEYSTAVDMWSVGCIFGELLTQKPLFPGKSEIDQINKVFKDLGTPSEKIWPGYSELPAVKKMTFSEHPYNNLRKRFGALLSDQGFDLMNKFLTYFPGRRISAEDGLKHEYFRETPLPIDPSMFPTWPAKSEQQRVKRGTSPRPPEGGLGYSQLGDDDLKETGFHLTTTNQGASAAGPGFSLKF
Summary of the method: as §1

[3] = biological target: T2, YANK1 (Homo sapiens, UniProt Q8WU08)
T2 construct: gene STK32A
Summary of the method: as §1

[4] = biological target: T3, CDC2L5 (Homo sapiens, UniProt Q14004)
T3 construct: gene CDK13
T3 sequence (Q14004 whole entry): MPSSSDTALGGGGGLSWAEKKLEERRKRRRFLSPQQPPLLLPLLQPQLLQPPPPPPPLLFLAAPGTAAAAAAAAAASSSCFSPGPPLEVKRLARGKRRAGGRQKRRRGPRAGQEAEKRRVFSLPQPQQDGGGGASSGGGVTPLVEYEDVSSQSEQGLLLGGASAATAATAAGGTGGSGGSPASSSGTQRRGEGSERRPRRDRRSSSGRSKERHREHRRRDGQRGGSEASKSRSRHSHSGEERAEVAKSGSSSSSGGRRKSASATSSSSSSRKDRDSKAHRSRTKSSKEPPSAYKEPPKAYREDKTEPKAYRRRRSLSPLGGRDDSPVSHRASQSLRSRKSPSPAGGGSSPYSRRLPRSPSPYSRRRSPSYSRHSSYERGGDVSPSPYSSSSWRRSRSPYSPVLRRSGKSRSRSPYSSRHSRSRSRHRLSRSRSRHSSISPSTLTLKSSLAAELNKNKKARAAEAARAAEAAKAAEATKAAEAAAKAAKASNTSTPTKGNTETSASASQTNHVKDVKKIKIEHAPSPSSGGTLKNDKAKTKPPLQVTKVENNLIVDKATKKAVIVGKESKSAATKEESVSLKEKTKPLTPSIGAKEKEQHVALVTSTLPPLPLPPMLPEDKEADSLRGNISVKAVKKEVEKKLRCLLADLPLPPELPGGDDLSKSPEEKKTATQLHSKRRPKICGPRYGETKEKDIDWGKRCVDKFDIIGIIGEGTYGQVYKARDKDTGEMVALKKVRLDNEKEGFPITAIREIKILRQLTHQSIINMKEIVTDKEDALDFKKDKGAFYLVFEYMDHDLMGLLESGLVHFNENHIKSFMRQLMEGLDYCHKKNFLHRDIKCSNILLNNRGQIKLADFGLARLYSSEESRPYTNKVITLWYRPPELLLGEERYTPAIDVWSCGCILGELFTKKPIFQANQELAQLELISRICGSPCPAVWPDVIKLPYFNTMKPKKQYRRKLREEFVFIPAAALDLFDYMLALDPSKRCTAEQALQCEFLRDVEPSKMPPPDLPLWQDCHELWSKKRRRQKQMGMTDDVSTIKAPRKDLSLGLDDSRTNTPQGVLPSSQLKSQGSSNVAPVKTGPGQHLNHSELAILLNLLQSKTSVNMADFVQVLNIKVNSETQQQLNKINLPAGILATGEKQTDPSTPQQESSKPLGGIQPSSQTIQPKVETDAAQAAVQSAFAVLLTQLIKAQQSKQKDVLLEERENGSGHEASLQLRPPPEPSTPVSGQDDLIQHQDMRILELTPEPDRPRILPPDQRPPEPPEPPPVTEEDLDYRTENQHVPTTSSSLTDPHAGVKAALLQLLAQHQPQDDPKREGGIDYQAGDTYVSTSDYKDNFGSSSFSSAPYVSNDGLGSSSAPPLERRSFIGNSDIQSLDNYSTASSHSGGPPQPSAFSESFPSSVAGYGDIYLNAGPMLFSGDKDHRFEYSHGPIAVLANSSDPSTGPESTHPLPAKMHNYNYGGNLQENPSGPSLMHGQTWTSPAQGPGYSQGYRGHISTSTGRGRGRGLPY
Summary of the method: as §1

[5] = biological target: T4, MKK7 (Homo sapiens, UniProt O14733)
T4 construct: gene MAP2K7
Summary of the method: as §1

[6] = biological target: FLT3(K663Q) (Homo sapiens, UniProt P36888, K663Q)
Summary of the method: as §1

[7] = biological target: MAST1 (Homo sapiens, UniProt Q9Y2H9)
Summary of the method: as §1

[8] = biological target: PAK3 (Homo sapiens, UniProt O75914)
Chain of PAK3 (O75914 whole entry): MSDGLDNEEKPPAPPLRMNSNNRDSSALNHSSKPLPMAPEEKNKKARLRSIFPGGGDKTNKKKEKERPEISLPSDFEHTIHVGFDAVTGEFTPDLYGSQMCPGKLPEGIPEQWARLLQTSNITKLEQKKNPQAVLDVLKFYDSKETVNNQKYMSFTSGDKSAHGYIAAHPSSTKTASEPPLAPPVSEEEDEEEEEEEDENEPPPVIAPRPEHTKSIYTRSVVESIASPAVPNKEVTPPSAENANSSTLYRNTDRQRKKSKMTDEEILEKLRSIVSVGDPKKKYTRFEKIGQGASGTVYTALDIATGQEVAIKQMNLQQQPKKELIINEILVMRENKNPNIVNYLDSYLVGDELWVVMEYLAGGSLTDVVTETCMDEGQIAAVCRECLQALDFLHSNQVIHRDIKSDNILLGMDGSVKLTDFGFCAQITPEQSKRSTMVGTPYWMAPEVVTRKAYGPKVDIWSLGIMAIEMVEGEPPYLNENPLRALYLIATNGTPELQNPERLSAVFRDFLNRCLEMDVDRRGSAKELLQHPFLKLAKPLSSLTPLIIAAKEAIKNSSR
Summary of the method: as §1

[9] = biological target: PAK2 (Homo sapiens, UniProt Q13177)
Summary of the method: as §1

[10] = biological target: T5, SGK (Homo sapiens, UniProt O00141)
T5 construct: gene SGK1
T5 sequence (O00141 whole entry): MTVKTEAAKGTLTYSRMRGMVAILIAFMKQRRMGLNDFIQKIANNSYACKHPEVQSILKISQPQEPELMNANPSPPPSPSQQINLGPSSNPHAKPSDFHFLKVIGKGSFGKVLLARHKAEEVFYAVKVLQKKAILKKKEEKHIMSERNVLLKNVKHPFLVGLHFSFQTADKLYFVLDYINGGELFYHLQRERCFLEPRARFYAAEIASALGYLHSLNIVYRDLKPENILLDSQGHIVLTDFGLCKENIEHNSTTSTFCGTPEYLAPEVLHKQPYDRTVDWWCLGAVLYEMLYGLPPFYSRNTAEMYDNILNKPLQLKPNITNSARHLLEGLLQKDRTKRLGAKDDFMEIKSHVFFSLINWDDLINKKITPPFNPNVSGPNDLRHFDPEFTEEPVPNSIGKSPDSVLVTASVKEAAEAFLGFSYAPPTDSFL
Summary of the method: as §1

[11] = biological target: AKT2 (Homo sapiens, UniProt P31751)
Summary of the method: as §1

[12] = biological target: DAPK3 (Homo sapiens, UniProt O43293)
Chain of DAPK3 (O43293 whole entry): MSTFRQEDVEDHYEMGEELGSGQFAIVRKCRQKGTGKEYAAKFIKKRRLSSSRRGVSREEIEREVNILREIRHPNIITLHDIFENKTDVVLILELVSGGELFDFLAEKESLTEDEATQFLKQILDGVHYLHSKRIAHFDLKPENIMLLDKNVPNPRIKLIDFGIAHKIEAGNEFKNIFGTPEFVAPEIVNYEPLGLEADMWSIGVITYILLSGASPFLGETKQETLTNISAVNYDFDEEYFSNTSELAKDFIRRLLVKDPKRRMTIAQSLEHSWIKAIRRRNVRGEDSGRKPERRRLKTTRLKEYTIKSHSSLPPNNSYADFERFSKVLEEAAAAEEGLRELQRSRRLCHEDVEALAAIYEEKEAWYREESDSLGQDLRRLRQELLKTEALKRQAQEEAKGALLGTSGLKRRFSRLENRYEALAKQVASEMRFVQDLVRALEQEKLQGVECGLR
Summary of the method: as §1

[13] = biological target: FLT3 (Homo sapiens, UniProt P36888)
Summary of the method: as §1

[14] = biological target: LIMK2 (Homo sapiens, UniProt P53671)
Summary of the method: as §1

[15] = biological target: FGR (Homo sapiens, UniProt P09769)
Summary of the method: as §1

[16] = biological target: EPHB2 (Homo sapiens, UniProt P29323)
Summary of the method: as §1

[17] = biological target: CHEK1 (Homo sapiens, UniProt O14757)
Summary of the method: as §1

[18] = biological target: PDPK1 (Homo sapiens, UniProt O15530)
Summary of the method: as §1

[19] = biological target: T6, PFTK1 (Homo sapiens, UniProt O94921)
T6 construct: gene CDK14
Summary of the method: as §1

[20] = biological target: T7, ABL1(M351T)-phosphorylated (Homo sapiens, UniProt P00519, M351T)
T7 construct: phosphorylated
Summary of the method: as §1

[21] = biological target: BMPR1B (Homo sapiens, UniProt O00238)
Summary of the method: as §1

[22] = biological target: T8, PCTK3 (Homo sapiens, UniProt Q07002)
T8 construct: gene CDK18
T8 sequence (Q07002 whole entry): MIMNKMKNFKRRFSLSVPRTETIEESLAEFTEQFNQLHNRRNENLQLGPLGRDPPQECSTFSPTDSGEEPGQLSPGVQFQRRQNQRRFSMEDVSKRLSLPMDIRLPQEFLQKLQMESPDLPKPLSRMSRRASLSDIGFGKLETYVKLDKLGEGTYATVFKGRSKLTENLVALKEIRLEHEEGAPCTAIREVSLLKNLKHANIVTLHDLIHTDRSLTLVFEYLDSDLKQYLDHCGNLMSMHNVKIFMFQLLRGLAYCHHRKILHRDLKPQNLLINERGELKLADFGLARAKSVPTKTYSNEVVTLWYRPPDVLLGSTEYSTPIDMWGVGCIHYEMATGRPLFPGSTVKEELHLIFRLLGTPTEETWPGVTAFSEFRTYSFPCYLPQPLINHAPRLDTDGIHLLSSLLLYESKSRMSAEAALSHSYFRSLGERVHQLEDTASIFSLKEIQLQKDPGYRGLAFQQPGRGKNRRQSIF
Summary of the method: as §1

remaining binding at 100 µM [1]: 85%
remaining binding at 100 µM [2]: 90%
remaining binding at 100 µM [3]: 78%
remaining binding at 100 µM [4]: 74%
remaining binding at 100 µM [5]: 67%
remaining binding at 100 µM [6]: 95%
remaining binding at 100 µM [7]: 75%
remaining binding at 100 µM [8]: 78%
remaining binding at 100 µM [9]: 98%
remaining binding at 100 µM [10]: 70%
remaining binding at 100 µM [11]: 86%
remaining binding at 100 µM [12]: 84%
remaining binding at 100 µM [13]: 71%
remaining binding at 100 µM [14]: 90%
remaining binding at 100 µM [15]: 57%
remaining binding at 100 µM [16]: 66%
remaining binding at 100 µM [17]: 91%
remaining binding at 100 µM [18]: 74%
remaining binding at 100 µM [19]: 93%
remaining binding at 100 µM [20]: 96%
remaining binding at 100 µM [21]: 74%
remaining binding at 100 µM [22]: 85%
SMILES: C=C(C)[C@H]1CC=C(C)C(=O)C1 [S-carvone]
